# Measurements: the supplement of paper PMC12463676, “Small-molecule dissolution of stress granules by redox modulation benefits ALS models” (Nature Chemical Biology, 2025)
# Assays:
# lipoamide = compound: NC(=O)CCCCC1CCSS1 [lipoamide]; assay: thermal stability z-score vs DMSO; higher = more thermally stabilized by treatment; details: HeLa, lipoamide concentration 100 µM
# Protocol: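 Cellular thermal proteome profiling in HeLa cells. Cells were treated with 100 µM lipoamide for 1 h, with or without 1 mM arsenate for a further 1 h, then heated to ten temperatures (37-66.3 °C), and soluble protein was quantified by TMT mass spectrometry relative to 0.1% DMSO controls. The thermal stability score (sum of log2 fold changes minus the abundance score) was transformed to a z-score; mean of n = 3 experiments.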
# potassium arsenate = compound: O=[As]([O-])(O)O.[K+] [potassium arsenate]; assay: as above; details: HeLa; arsenate concentration 1 mM
# Protocol: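 Cellular thermal proteome profiling in HeLa cells treated with 1 mM arsenate for 1 h (DMSO pretreatment), heated to ten temperatures (37-66.3 °C). Soluble protein was quantified by TMT mass spectrometry relative to DMSO controls; the thermal stability score was transformed to a z-score; mean of n = 3 experiments.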
# [1] = arsenate co-treatment: 1 mM arsenate 1 h
# 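Further: each temperature applied for 3 min, abundance score taken as mean log2 fold change at the two lowest temperatures, z-score obtained by mean subtraction and division by SD.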
# Chain of UniProt P58107 (P58107 whole entry): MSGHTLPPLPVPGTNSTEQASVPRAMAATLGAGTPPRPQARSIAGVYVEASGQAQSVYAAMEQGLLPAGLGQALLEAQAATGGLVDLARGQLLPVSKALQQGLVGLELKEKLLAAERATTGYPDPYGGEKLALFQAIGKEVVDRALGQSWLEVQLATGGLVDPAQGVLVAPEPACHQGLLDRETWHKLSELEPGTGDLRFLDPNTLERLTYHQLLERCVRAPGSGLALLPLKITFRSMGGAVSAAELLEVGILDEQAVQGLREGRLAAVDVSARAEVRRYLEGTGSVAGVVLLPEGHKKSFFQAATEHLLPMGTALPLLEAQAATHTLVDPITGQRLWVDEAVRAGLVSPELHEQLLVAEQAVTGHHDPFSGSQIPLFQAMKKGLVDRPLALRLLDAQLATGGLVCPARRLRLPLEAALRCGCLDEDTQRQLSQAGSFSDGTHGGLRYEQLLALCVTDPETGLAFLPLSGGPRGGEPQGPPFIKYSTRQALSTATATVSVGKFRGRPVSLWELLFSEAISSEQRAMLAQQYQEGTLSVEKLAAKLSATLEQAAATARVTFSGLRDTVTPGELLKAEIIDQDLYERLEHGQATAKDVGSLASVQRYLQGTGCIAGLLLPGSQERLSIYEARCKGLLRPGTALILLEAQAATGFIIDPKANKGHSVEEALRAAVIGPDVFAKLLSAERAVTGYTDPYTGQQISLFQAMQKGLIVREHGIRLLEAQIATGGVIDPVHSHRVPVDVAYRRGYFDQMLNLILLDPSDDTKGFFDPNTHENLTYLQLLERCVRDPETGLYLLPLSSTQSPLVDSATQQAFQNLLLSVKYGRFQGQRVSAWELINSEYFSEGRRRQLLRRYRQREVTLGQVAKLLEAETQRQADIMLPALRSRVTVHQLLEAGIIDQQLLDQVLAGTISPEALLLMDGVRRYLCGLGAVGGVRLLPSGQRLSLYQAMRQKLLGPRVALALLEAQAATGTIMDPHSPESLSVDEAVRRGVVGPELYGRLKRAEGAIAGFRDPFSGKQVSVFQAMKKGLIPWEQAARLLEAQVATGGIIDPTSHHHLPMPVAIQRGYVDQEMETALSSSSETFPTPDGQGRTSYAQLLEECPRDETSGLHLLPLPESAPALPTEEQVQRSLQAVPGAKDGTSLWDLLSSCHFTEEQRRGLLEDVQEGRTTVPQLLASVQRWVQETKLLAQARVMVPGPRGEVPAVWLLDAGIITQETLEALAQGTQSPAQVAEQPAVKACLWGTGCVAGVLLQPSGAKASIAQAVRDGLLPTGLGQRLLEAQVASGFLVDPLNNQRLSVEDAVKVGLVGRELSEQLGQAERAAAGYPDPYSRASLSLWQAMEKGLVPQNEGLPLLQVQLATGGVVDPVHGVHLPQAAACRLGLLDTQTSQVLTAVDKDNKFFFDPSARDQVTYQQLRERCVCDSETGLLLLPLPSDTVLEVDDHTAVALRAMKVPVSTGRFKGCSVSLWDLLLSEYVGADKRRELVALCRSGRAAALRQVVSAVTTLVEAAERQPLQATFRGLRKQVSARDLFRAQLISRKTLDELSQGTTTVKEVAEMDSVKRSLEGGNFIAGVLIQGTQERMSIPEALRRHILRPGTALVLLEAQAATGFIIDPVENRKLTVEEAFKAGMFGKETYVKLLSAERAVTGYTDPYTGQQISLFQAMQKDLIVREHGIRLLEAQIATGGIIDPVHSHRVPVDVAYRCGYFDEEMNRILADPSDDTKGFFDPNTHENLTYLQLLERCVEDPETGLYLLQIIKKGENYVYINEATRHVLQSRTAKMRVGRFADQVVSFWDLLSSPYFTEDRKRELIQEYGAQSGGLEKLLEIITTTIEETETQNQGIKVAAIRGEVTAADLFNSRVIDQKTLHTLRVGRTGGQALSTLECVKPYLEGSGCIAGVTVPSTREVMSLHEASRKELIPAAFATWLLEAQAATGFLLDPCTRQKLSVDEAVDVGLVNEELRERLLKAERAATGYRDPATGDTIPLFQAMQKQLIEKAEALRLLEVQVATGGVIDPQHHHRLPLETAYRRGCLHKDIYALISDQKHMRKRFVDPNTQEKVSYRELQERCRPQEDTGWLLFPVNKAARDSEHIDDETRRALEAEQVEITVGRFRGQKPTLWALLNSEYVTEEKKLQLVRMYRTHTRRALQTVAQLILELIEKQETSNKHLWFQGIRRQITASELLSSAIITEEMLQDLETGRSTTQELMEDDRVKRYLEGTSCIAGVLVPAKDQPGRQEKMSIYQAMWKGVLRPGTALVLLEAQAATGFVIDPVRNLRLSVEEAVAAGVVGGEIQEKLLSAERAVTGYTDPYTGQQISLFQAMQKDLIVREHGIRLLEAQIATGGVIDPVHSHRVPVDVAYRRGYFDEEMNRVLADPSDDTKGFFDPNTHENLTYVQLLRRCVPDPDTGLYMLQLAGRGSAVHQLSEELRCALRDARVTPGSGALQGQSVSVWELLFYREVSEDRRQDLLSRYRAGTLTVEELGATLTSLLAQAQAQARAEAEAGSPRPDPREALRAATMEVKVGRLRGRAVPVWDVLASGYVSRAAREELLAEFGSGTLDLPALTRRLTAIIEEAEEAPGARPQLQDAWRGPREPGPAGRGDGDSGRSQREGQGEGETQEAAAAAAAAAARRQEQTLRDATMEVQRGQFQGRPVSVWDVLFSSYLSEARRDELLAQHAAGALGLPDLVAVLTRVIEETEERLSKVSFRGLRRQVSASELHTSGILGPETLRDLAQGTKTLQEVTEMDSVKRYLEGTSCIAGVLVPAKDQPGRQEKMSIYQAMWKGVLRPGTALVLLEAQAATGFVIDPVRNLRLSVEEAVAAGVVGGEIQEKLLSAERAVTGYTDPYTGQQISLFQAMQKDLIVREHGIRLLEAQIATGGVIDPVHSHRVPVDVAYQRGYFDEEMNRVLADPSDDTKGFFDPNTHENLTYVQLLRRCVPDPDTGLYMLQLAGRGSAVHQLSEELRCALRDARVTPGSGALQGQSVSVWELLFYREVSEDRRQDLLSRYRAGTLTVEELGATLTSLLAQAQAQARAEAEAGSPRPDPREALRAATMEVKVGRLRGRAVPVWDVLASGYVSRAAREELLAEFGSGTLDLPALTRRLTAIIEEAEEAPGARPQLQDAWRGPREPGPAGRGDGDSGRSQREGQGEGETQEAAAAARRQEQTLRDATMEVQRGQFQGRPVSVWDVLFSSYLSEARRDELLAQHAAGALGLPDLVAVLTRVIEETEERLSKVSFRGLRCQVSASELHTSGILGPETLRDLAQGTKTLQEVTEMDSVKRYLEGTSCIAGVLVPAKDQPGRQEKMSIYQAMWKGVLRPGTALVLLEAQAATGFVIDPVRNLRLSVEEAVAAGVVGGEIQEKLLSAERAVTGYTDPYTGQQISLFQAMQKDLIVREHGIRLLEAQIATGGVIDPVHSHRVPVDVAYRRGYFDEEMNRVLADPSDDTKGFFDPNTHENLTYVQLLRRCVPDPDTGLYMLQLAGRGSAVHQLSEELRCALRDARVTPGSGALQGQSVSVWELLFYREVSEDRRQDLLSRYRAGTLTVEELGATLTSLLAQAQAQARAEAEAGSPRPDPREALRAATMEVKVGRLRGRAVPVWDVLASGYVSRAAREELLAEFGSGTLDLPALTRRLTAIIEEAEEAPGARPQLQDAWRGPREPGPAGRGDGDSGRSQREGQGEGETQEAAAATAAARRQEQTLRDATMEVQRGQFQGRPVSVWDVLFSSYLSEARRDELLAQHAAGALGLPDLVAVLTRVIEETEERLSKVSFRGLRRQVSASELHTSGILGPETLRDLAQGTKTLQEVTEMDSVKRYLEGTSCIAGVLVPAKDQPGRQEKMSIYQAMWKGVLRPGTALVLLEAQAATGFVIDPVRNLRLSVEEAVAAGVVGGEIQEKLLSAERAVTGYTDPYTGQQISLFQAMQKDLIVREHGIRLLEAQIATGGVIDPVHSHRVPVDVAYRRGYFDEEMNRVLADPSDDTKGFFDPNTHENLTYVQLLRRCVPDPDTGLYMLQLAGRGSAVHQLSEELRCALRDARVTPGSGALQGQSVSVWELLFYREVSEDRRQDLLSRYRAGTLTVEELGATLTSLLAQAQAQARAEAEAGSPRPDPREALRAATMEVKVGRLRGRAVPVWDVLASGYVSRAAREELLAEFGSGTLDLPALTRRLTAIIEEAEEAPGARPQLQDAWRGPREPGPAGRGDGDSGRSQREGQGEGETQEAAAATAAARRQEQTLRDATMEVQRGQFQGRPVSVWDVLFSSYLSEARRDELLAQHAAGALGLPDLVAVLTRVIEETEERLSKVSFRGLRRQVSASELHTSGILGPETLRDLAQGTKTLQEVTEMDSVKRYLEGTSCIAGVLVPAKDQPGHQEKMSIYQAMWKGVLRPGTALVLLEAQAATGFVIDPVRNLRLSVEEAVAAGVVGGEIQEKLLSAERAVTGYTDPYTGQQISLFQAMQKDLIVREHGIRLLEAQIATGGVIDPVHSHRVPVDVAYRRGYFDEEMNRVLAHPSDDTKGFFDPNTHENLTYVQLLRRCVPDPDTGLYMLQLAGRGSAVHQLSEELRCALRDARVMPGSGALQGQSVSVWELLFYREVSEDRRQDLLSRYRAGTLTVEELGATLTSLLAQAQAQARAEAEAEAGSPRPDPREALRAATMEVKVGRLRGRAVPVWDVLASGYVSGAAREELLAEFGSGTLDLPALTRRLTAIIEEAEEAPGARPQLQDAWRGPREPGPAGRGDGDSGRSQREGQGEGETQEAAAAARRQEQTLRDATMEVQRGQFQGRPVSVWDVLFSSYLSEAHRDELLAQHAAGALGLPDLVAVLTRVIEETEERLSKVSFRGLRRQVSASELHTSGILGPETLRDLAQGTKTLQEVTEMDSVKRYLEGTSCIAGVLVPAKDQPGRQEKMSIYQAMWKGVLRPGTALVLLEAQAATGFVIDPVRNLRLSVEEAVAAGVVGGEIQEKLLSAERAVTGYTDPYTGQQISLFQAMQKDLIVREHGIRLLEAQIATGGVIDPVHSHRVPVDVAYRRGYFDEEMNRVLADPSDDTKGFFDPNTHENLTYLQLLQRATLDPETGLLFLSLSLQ
# Chain of UniProt Q8NHZ8 (Q8NHZ8 whole entry): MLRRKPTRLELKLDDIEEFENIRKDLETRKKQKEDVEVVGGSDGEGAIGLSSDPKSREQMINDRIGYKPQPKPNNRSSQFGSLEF
Target,thermal stability z-score (lipoamide; [1]),thermal stability z-score (lipoamide; arsenate co-treatment: none),thermal stability z-score (potassium arsenate)
NCDN (UniProt Q9UBB6),0.164,-0.266,0.288
BTF3 (UniProt P20290),0.457,0.48,0.076
OPHN1 (UniProt O60890),-0.0389,0.0614,0.0261
VKORC1 (UniProt Q9BQB6),-1.71,-1.59,0.856
DCAKD (UniProt Q8WVC6),-0.963,-1.05,0.214
RPS6KB1 (UniProt P23443),-0.0619,0.679,0.138
CBSL|CBS,-1.81,-1.33,0.256
RBM42 (UniProt Q9BTD8),0.952,0.152,-0.098
RPS6KB2 (UniProt Q9UBS0),0.0955,0.0989,-0.0668
LARS2 (UniProt Q15031),-0.0508,0.0433,-0.741
TUBGCP3 (UniProt Q96CW5),0.238,0.127,0.123
THEM4 (UniProt Q5T1C6),-0.175,-0.235,-0.626
MAPK8 (UniProt P45983),0.24,0.00773,-0.00139
FLNA (UniProt P21333),0.22,0.544,-0.4
ZNF384 (UniProt Q8TF68),-0.017,0.00673,-0.241
QTRT1 (UniProt Q9BXR0),0.739,-1.03,-0.729
IREB2 (UniProt P48200),-0.0142,0.0771,-0.386
PRMT7 (UniProt Q9NVM4),-0.363,0.259,1.47

Target,thermal stability z-score (lipoamide; [1]),thermal stability z-score (lipoamide; arsenate co-treatment: none),thermal stability z-score (potassium arsenate)
CDC26 (UniProt Q8NHZ8),1.32,0.534,0.691
P1394_HsINTS1|INTS1,-0.0499,-0.0292,0.145
CC2D1B (UniProt Q5T0F9),-0.661,-0.8,-0.125
COX6C (UniProt P09669),0.703,0.431,0.836
FAIM (UniProt Q9NVQ4),1.03,0.411,0.336
CCDC25 (UniProt Q86WR0),0.415,0.668,0.439
PIK3C3 (UniProt Q8NEB9),-0.102,-0.206,-0.484
CDC42EP4 (UniProt Q9H3Q1),-0.323,-0.652,0.499
CKB (UniProt P12277),-0.249,-0.245,-1.02
HSP90AA1 (UniProt P07900),0.0337,0.301,0.428
FHL3 (UniProt Q13643),0.648,-0.254,-3.01
SF3B4 (UniProt Q15427),0.152,-0.211,-0.243
ZNF609 (UniProt O15014),0.0184,-0.0967,-0.0848
BLZF1 (UniProt Q9H2G9),-0.0966,0.122,-0.103
H1FX (UniProt Q92522),-0.468,-0.893,-1.7
SNX6 (UniProt Q9UNH7),0.175,0.276,0.277
EPPK1 (UniProt P58107),-0.00734,0.0541,-0.359
